Results published in ChEMBL document CHEMBL5465560, “Selectivity Literature for EUbOPEN Chemogenomic Library” (2024).
One block for each compound: values may come before it.

Assays:
[1] = molecular target: T1, Myotonin-protein kinase (Homo sapiens) (UniProt Q09013); test: Selectivity interaction (KinomeScan (DiscoverX)) EUB0001049a DMPK; details: at 1 µM
T1 sequence (whole entry): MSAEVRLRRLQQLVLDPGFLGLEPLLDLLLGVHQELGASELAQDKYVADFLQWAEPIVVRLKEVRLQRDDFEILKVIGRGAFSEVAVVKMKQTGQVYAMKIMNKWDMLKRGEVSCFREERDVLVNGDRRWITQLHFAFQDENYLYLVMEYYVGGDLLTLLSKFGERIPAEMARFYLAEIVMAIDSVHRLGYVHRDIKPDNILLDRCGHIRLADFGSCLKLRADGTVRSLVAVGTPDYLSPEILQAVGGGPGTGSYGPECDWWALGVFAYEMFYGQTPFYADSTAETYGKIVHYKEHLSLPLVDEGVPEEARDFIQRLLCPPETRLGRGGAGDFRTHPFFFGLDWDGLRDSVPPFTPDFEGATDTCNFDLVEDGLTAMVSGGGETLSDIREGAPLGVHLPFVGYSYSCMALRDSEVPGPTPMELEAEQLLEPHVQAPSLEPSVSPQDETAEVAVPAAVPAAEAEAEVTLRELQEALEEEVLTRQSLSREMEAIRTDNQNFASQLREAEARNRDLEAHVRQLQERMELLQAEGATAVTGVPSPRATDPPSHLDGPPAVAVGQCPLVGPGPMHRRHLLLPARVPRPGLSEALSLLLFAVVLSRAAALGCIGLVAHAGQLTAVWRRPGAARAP

[2] = molecular target: Dual specificity mitogen-activated protein kinase kinase 2 (Homo sapiens) (UniProt P36507); test: Selectivity interaction (ActivX KiNativ screen (kinase selectivity in THP-1 cell lysates)) EUB0000639a MAP2K2; type: subcellular; details: lysate
Sequence of Dual specificity mitogen-activated protein kinase kinase 2 (Homo sapiens) (P36507 whole entry): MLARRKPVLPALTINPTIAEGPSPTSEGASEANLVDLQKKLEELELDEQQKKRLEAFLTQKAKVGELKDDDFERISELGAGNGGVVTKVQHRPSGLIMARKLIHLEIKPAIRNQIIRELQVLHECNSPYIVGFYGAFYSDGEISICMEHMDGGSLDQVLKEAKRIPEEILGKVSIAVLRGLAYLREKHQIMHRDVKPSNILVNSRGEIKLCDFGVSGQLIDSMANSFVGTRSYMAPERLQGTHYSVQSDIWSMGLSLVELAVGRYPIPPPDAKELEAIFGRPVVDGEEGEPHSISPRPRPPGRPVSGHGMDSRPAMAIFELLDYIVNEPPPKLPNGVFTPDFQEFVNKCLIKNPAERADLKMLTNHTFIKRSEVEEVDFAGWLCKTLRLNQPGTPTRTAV

[3] = molecular target: T2, Ribosomal protein S6 kinase alpha-1 (Homo sapiens, UniProt Q15418); test: Selectivity interaction (ActivX KiNativ screen (kinase selectivity in THP-1 cell lysates)) EUB0000639a RPS6KA1; type: subcellular; details: lysate, at 0.2 µM
T2 sequence (Q15418 whole entry): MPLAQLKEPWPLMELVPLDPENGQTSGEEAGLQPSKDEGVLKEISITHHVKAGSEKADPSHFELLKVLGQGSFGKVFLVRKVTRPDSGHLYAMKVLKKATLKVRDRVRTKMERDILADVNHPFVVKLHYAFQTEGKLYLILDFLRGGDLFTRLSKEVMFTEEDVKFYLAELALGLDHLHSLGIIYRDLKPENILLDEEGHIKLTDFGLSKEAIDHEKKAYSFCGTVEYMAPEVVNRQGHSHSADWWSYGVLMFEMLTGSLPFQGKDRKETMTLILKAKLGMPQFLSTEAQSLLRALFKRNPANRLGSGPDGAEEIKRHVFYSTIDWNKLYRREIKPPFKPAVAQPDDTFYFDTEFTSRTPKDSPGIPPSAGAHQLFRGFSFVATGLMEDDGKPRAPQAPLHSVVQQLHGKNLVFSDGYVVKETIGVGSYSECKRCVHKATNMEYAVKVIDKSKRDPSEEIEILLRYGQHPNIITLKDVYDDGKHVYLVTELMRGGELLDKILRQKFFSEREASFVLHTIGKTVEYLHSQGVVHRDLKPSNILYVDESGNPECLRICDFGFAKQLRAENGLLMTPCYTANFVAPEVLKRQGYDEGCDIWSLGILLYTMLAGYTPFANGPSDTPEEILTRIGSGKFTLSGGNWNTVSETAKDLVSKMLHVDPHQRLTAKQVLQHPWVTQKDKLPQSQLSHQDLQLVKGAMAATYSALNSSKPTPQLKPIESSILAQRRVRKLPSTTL

[4] = Selectivity interaction (ActivX KiNativ screen (kinase selectivity in THP-1 cell lysates)) EUB0000639a STLK6; details: Selectivity number of targets 283, Source Knowledge https://pubmed.ncbi.nlm.nih.gov/28498658/
[5] = molecular target: T3, Serine/threonine-protein kinase D3 (Homo sapiens) (UniProt O94806); test: Selectivity interaction (ActivX KiNativ screen (kinase selectivity in THP-1 cell lysates)) EUB0000639a PRKD3; type: subcellular; details: lysate
T3 sequence (whole entry): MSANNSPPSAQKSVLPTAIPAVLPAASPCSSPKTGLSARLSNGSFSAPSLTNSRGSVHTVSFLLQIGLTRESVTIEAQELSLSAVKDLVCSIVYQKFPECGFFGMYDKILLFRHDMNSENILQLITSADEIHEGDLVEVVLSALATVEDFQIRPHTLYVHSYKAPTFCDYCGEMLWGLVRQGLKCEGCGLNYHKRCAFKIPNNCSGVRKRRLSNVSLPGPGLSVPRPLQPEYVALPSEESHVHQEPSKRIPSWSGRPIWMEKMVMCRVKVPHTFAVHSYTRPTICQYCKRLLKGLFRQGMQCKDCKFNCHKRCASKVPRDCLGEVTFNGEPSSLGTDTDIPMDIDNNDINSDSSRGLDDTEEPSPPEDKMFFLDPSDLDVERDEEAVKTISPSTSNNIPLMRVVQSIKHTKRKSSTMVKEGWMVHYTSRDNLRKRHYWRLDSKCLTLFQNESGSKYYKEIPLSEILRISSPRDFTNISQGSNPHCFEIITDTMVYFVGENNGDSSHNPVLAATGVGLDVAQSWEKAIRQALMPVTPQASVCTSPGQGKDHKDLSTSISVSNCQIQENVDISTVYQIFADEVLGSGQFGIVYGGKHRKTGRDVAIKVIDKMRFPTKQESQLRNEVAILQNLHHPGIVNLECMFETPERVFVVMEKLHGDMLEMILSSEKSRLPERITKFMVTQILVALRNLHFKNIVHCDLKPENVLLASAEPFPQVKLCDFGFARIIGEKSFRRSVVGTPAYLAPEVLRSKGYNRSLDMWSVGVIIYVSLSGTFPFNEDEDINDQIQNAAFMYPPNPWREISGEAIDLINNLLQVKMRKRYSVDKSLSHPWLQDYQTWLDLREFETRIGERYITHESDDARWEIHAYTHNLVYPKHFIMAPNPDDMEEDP

[6] = molecular target: MAP/microtubule affinity-regulating kinase 3 (Homo sapiens) (UniProt P27448); test: Selectivity interaction (Kinase panel (Z-LYTE Assay)) EUB0001632a MARK3; details: at 10 µM
[7] = molecular target: Serine/threonine-protein kinase N2 (Homo sapiens, UniProt Q16513); test: Selectivity interaction (KinomeScan (DiscoverX)) EUB0000695a PKN2; details: at 100 nM
[8] = system: Phosphatidylinositol 4,5-bisphosphate 3-kinase catalytic subunit alpha isoform (Homo sapiens), P42336 [C420R]; test: (§1) Selectivity interaction (KinomeScan (DiscoverX)) EUB0001079a PIK3CA; details: at 1 µM
[9] = system: Phosphatidylinositol 4,5-bisphosphate 3-kinase catalytic subunit alpha isoform (Homo sapiens), P42336 [M1043I]; test: as §1; details: at 1 µM
[10] = system: Phosphatidylinositol 4,5-bisphosphate 3-kinase catalytic subunit alpha isoform (Homo sapiens), P42336 [Q546K]; test: as §1; details: at 1 µM
[11] = system: Phosphatidylinositol 4,5-bisphosphate 3-kinase catalytic subunit alpha isoform (Homo sapiens), P42336 [E542K]; test: as §1; details: at 1 µM
Sequence of Phosphatidylinositol 4,5-bisphosphate 3-kinase catalytic subunit alpha isoform (Homo sapiens), P42336 [E542K] (P42336 whole entry E542K, canonical isoform): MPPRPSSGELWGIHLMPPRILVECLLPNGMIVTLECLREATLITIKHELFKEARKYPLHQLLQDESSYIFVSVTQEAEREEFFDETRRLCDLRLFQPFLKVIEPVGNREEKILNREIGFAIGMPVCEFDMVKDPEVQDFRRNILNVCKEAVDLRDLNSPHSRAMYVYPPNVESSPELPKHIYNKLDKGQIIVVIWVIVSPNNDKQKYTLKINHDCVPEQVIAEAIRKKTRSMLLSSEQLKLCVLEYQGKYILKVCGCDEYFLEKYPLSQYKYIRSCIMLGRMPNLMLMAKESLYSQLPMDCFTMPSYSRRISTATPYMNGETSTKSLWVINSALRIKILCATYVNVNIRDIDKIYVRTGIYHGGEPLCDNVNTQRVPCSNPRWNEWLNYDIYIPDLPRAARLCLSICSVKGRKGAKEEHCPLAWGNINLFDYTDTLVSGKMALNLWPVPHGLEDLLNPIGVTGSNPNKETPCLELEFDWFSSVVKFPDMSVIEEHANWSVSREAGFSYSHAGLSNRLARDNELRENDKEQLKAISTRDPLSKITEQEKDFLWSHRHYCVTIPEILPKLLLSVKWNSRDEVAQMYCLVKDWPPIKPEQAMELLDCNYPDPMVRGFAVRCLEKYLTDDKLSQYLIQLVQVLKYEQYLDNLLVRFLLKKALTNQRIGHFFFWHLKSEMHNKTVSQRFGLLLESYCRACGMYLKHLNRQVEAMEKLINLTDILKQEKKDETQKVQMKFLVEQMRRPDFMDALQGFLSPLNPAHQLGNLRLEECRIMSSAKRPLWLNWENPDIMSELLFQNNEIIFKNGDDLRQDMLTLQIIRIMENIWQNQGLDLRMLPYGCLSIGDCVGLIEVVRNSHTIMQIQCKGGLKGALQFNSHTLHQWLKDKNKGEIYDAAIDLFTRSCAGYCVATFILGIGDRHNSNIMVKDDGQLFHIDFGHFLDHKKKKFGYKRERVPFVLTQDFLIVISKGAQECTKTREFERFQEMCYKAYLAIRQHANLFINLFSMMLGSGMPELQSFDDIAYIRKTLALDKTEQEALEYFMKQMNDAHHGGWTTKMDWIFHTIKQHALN

[12] = system: Phosphatidylinositol 4,5-bisphosphate 3-kinase catalytic subunit alpha isoform (Homo sapiens), P42336 [H1047Y]; test: as §1; details: at 1 µM
Sequence of Phosphatidylinositol 4,5-bisphosphate 3-kinase catalytic subunit alpha isoform (Homo sapiens), P42336 [H1047Y] (P42336 whole entry H1047Y, canonical isoform): as the sequence (P42336 whole entry E542K, canonical isoform) above, with K542E, H1047Y counted along it

[13] = system: Phosphatidylinositol 4,5-bisphosphate 3-kinase catalytic subunit alpha isoform (Homo sapiens), P42336 [E545K]; test: as §1; details: at 1 µM
Sequence of Phosphatidylinositol 4,5-bisphosphate 3-kinase catalytic subunit alpha isoform (Homo sapiens), P42336 [E545K] (P42336 whole entry E545K, canonical isoform): as the sequence (P42336 whole entry E542K, canonical isoform) above, with K542E, E545K counted along it

[14] = system: Phosphatidylinositol 4,5-bisphosphate 3-kinase catalytic subunit alpha isoform (Homo sapiens), P42336 [E545A]; test: as §1; details: at 1 µM
[15] = molecular target: Serine/threonine-protein kinase PAK 6 (Homo sapiens) (UniProt Q9NQU5); test: Selectivity interaction (ProQinase) EUB0000171b PAK6
Sequence of Serine/threonine-protein kinase PAK 6 (Homo sapiens) (Q9NQU5 whole entry, looked up): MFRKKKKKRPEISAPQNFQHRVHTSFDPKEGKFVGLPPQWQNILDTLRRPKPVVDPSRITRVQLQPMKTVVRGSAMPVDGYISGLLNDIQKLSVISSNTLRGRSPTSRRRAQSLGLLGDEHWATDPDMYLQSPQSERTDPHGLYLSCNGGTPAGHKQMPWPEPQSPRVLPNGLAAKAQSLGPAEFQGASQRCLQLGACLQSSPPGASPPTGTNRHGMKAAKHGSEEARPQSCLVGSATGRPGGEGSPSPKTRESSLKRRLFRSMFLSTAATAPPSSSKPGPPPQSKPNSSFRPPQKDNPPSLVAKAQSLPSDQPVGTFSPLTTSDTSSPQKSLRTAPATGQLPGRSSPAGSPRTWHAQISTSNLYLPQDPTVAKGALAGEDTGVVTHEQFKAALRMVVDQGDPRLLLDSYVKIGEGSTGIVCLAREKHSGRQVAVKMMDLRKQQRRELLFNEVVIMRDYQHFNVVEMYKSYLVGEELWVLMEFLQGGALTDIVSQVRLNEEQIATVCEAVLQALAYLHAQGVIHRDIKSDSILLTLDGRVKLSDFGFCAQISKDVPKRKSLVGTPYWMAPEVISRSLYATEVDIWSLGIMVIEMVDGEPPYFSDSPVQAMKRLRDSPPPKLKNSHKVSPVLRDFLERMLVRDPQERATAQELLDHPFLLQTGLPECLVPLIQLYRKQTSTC

Misshapen-like kinase 1 = Misshapen-like kinase 1 (Homo sapiens, UniProt Q8N4C8); test: Selectivity interaction (Upstate Kinase Profiler service (Millipore)) EUB0000056c MINK1; details: at 1 µM
[16] = molecular target: T2, Ribosomal protein S6 kinase alpha-1; test: Selectivity interaction (KinomeScan (DiscoverX)) EUB0000655a RPS6KA1; details: at 10 µM
[17] = molecular target: MAP kinase-interacting serine/threonine-protein kinase 2 (Homo sapiens, UniProt Q9HBH9); test: Selectivity interaction (KinomeScan (DiscoverX)) EUB0000618a MKNK2; details: at 10 µM

Structure (SMILES): COc1cc(Nc2nc(C)cc(-c3cnn4nc(OC)ccc34)n2)cc(C(F)(F)F)c1
% of control [1]: 100%

% of inhibition ([2]; at 0.01 µM): -25.6%
% of inhibition ([2]; at 0.04 µM): -4.8%
% of inhibition ([2]; at 0.2 µM): -3.6%
% of inhibition ([2]; at 1 µM): 3.1%
% of inhibition ([2]; at 5 µM): 18.5%
% of inhibition [3]: -3.6%
% of inhibition ([5]; at 0.01 µM): -8.3%
% of inhibition ([5]; at 0.04 µM): -5.9%
% of inhibition ([5]; at 0.2 µM): -13.7%
% of inhibition ([5]; at 1 µM): 3.6%
% of inhibition ([5]; at 5 µM): -22.1%
Structure (SMILES): CC[C@@H]1[C@H](F)C(=O)N[C@@H]1COc1nccc2cc(C(N)=O)c(OC)cc12 [ZIMLOVISERTIB]
% of inhibition ([4]; Selectivity number of off-targets 0, at 0.01 µM): 4.1%
% of inhibition ([4]; Selectivity number of off-targets 0, at 0.04 µM): 23.1%
% of inhibition ([4]; Selectivity number of off-targets 0, at 0.2 µM): 11.5%
% of inhibition ([4]; Selectivity number of off-targets 1, at 1 µM): 7.9%
% of inhibition ([4]; Selectivity number of off-targets 5, at 5 µM): 11.7%

% of control [6]: 18.1%
Structure (SMILES): Cn1cc(-n2cnc3c(NCc4nc5cc(Cl)c(Cl)cc5[nH]4)nc(N4CCOCC4)nc32)cn1

Structure (SMILES): Cc1cc(F)c(C(=O)Nc2cccc(-c3nncn3C(C)C)n2)cc1-n1cnc(C2CC2)c1
% of control [7]: 63%

Structure (SMILES): Nc1cnc(N2CCc3cc(S(=O)(=O)Nc4c(F)cc(Cl)cc4F)cc(N4CCCC4=O)c32)nc1 [TP-020n]
% of control [8]: 84%
% of control [9]: 100%
% of control [10]: 78%
% of control [11]: 72%
% of control [12]: 100%
% of control [13]: 100%
% of control [14]: 100%

% of control ([15]; at 1 µM): 92%
% of control ([15]; at 5 µM): 76%
Structure (SMILES): C=CC(=O)Nc1cccc(C(=O)Nc2ccc(Nc3cc(-c4[nH]c(SC)nc4C)ccn3)cc2)c1

% of inhibition (Misshapen-like kinase 1): 11%
Structure (SMILES): Cc1ccc(-c2ccc3c(ccc4sc5c(c43)NC[C@@H](C)NC5=O)n2)cn1

Structure (SMILES): CN(C)CCOc1ccc(-c2nc(-c3ccncc3)c(-c3ccc4c(c3)CC/C4=N\O)[nH]2)cc1
% of control [16]: 91%

Structure (SMILES): O[C@H]1CC[C@H](Nc2ncc3nc(Nc4c(F)cc(F)cc4F)n([C@H]4CCOC4)c3n2)CC1
% of control [17]: 100%
